# Experimental data from patent publication US20040175352A1, “Microbicidal compositions including an ionene polymer and 2,4,4-trichloro-2-hydroxydiphenyl ether, and methods of using the same” (priority 2003, published 2004).
# Several values for one entry are separate records, joined by “and”; a condition that tells them apart may be missing. Equal values may be shown once.
# Legend:
# Format in all cases: cell-based
# Chlorella sp. = test: Algal evaluation, Chlorella sp. growth prevention (end point, Kull synergism); conditions: lowest concentration completely preventing growth for three or four weeks, modified Allen's medium pH 7.8, 25° C., 180 ft-candle
# Experimental: The medium used for testing the effectiveness of the invention against algae was modified Allen's medium (see Allen, A. A., Simple conditions for growth of unicellular blue-green algae on plates, JOURNAL OF PHYCOLOGY. 4:1-4 […]). To make modified Allen's medium, the following six individual stock solutions in g/200 ml of deionized water were first prepared: 1.50 g of K2HPO4; 1.50 g of MgSO4.7H20; 0.80 g Na2CO3; 0.5 g CaCl2.2H2O; 1.16 g Na2SiO3.9H2O; 1.20 g citric acid. A micronutrient stock solution was also prepared by adding the following ingredients to 1 liter of deionized water: 0.75 g of Na2EDTA; 0.097 g FeCl3.6H2O; 0.041 g of MnCl2.4H2O; 0.005 g ZnCl2; 0.002 g CoCl2.6H2O; 0.004 g Na2MoO4.2H2O. To make the final modified Allen's medium, the following ingredients and the stock solutions, prepared from above, were combined in a flask and then made up to 1 liter with deionized water: 1.5 g NaNO3; 5 ml K2HPO4; 5 ml MgSO4.7H2O; 5 ml Na2CO3; 10 ml CaCl2.2H2O; 10 ml Na2SiO3.9H2O; 1 ml citric acid; and 1 ml micronutrient stock solution. The pH was adjusted to 7.8. Then the medium was dispensed in 5 ml amounts in test tubes and autoclaved at 121° C. for 20 minutes. After autoclaving, the biocides were added to the medium in the desired concentrations. […]
# Klebsiella pneumoniae = test: Bacterial evaluation, Klebsiella pneumoniae growth prevention (end point, Kull synergism); conditions: lowest concentration completely preventing growth for 24 or 48 hours, nutrient broth, 30° C.
# Experimental: (§1) Nutrient broth (2.5 g/liter of deionized water) was prepared. This was distributed in 5 ml amounts in test tubes and autoclaved at 121° C. for 20 minutes. After addition of the biocides in the desired concentrations to the nutrient broth, 100 microliters of a 24-hour grown suspension of Pseudomonas aeruginosa or Klebsiella pneumoniae cells of approximately 9.3×10^8 cfu/ml were added and incubated at 30° C. for 24 or 48 hours.
# (§2) (Busan® 77), poly[hydroxyethylene-(dimethyliminio)-2-hydroxypropylene(dimethyliminio)methylene dichloride] (Busan® 1055 or APCA), or a cross-linked terpolymer of dimethylamine, epichlorohydrin and ethylenediamine (Busan® 1157), (designated component A), and triclosan (designated component B) in a series of tests in varying ratios and a range of concentrations against the fungi Trichoderma viride, and Aspergillus niger, the bacteria Pseudomonas aeruginosa and Klebsiella pneumoniae, and the alga Chlorella sp. using the methods described above.
# (§3) End points for the various mixtures were then compared with the end points for the pure active ingredients alone in concomitantly prepared flasks or test tubes.
# (§4) Qa=Concentration of compound A in parts per million, acting alone, which produced an end point.
# (§5) Qb=Concentration of compound B in parts per million, acting alone, which produced an end point. […]
# Trichoderma viride = test: Fungal evaluation, Trichoderma viride growth prevention (end point, Kull synergism); conditions: lowest concentration completely preventing growth for seven days, mineral salts-glucose medium pH 6, 25° C.
# Experimental: Mineral salts-glucose medium was used. To prepare the medium, the following ingredients were added to 1 liter of deionized water: 0.7 g of KH2PO4; 0.7 g of MgSO4.7H2O; 1.0 g of HN4NO3; 0.005 g of NaCl; 0.002 g of FeSO4.7H20; 0.002 g ZnSO4.7H2O; 0.001 g of MnSO4.7H2O; 10 g of Glucose. The pH of the medium was adjusted to 6 with 1N NaOH. The medium was distributed in 5 ml amounts in test tubes and autoclaved at 121° C. for 20 minutes. The fungus, Trichoderma viride or Aspergillus niger, was grown on potato dextrose agar slant for 5 to 10 days and a spore suspension prepared by washing down the spores from the slant into a sterile saline solution. After addition of the biocides in the desired concentrations in the sterile mineral salts-glucose medium, the fungal spore suspension was added. The final spore concentration was approximately 10^6 cfu/ml. The inoculated media was incubated at 25° C. for 7 days.
# (Busan® 77), poly[hydroxyethylene-(dimethyliminio)-2-hydroxypropylene(dimethyliminio)methylene dichloride] […]
# Pseudomonas aeruginosa = test: Bacterial evaluation, Pseudomonas aeruginosa growth prevention (end point, Kull synergism)
# Experimental: as §1, §2, §3, §4, §5
smiles,measurement,setting,value
"Oc1cc(Cl)ccc1Oc1ccc(Cl)cc1Cl [Triclosan, 2,4,4′-tricloro-2′-hydroxydiphenyl ether]","Ob, quantity producing end point: concentration of component B (triclosan) acting alone",Chlorella sp.,0.5 ppm and 0.6 ppm
same,"Ob, quantity producing end point: concentration of component B (triclosan) acting alone",Klebsiella pneumoniae,0.5 ppm
same,"Ob, quantity producing end point: concentration of component B (triclosan) acting alone",Trichoderma viride,25 ppm
same,"Ob, quantity producing end point: concentration of component B (triclosan) acting alone","Pseudomonas aeruginosa; Pseudomonas aeruginosa, lowest concentration completely preventing growth for 24 or 48 hours, nutrient broth, 30° C.",>500 ppm
same,effectiveness against Pseudomonas sp. when used individually,"Pseudomonas aeruginosa; Pseudomonas sp., component used individually",ineffective
